Key:
Type in all cases: cell-based, human
[1] = test system: genes encoding for proangiogenic factors; experiment: Real-Time Quantitative PCR in HT1080 cells, summary statement for all factors; conditions: 2.5 µM, result in words
Experimental: (§1) To evaluate the effect of heparanase inhibitors on the tumor transcription of genes encoding for proangiogenic factors, such as FGF1/2, VEGF, MMP-9, HSPE-1, the relative mRNA levels were analyzed by quantitative Real-Time Quantitative PCR.
To perform the assay, HT1080 (human fibrosarcoma) cells were cultured in complete medium containing 10%FCS (fetal calf serum). Cells were plated in 24-well plates and treated at fixed concentration (i.e., highest non-toxic concentration) of test compounds. After 24 h, cells were detached, collected and total RNA extracted by RNeasy Mini Kit (QIAGEN). Following reverse transcription step, FGF1/2, VEGF, MMP-9, HSPE-1 mRNA levels, were quantified by qPCR using the advanced Universal SYBR Green Supermix (Bio Rad) and ABI PRISM 7900HT Thermal Cycler System (Perkin Elmer), according to the manufacturer's instructions. Appropriate no-RT and non-template controls were included in each 96-well PCR reaction, and dissociation analysis was performed at the end of each run to confirm the specificity of the reaction. Relative levels of RNA were calculated using the ddCt method. Standard curve and sample data were run in duplicate. In Table 4 a mean value is reported. […]

[2] = test system: HPSE-1; experiment: Real-Time Quantitative PCR of mRNA gene expression in HT1080 cells; conditions: 24 h, 2.5 uM, mean value
Experimental: as §1
(§2) To perform the assay, HT1080 (human fibrosarcoma) cells were cultured in complete medium containing 10%FCS (fetal calf serum). Cells were plated in 24-well plates and treated at fixed concentration (i.e., highest non-toxic concentration) of test compounds. After 24 h, cells were detached, collected and total RNA extracted by RNeasy Mini Kit (QIAGEN). Following reverse transcription step, FGF1/2, VEGF, MMP-9, HSPE-1 mRNA levels, were quantified by qPCR using the advanced Universal SYBR Green Supermix (Bio Rad) and ABI PRISM 7900HT Thermal Cycler System (Perkin Elmer), according to the manufacturer's instructions. Appropriate no-RT and non-template controls were included in each 96-well PCR reaction, and dissociation analysis was performed at the end of each run to confirm the specificity of the reaction. Relative levels of RNA were calculated using the ddCt method. Standard curve and sample data were run in duplicate. In Table 4 a mean value is reported.

[3] = test system: FGF-2; experiment: as above; conditions: 24 h, 2.5 uM, mean value
Experimental: as §1, §2

[4] = test system: MMP-9; experiment: as above; conditions: 24 h, 2.5 uM, mean value
Experimental: as §1, §2

[5] = test system: VEGF; experiment: as above; conditions: 24 h, 2.5 uM, mean value
Experimental: as §1, §2

[6] = test system: FGF-1; experiment: as above; conditions: 24 h, 2.5 uM, mean value
Experimental: as §1, §2

“2,2'-{carbonylbis[imino[5-(trifluoromethyl)-3,1-phenylene]carbonylimino(1-methyl-1H-pyrrole-4,2-diyl)carbonylimino-3,1-phenylene(1-oxoethane-2,1-diyl)imino]}diethanoic acid [Compound 12i]” was tested, and the “inhibition of genes expression encoding for proangiogenic factors” value [1] was “significant inhibition”, the “Gene Expression (% mRNA vs. control) HPSE-1” value [2] was ~ 63% and the “Gene Expression (% mRNA vs. control) FGF-2” value [3] was ~ 82%. For the same substance, the “Gene Expression (% mRNA vs. control) MMP-9” value [4] was ~ 50%, the “Gene Expression (% mRNA vs. control) VEGF” value [5] was ~ 55% and the “Gene Expression (% mRNA vs. control) FGF-1” value [6] was ~ 53%.

— EP3381898A1, “SYMMETRICAL TRIS-ARYL-AMIDE DERIVATIVES AND THEIR USE AS ANTI-HEPARANASE” (priority 2017, dated 2018)
